Data on 13 compounds can be found in PubChem BioAssay AID248 (DTP/NCI, 2004).

“And” between values parts separate entries of the source, which are not always exact repeats. Equal entries are not always repeated. Inconclusive results and toxic doses are left out.

The test concerns L1210 leukemia ip in BDF1 mice, survival T/C. Kind of test: NCI In Vivo Anticancer Drug Screen. Data for tumor model L1210 Leukemia (intraperitoneal) in B6D2F1 (BDF1) mice. To be noted: endpoint: mean survival time, higher = longer survival. An outline of the steps: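 Value reflects the ratio of survival in compound-treated mice to survival in vehicle-treated controls, with both groups carrying the same transplanted tumor.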

Setting [1] is: dose: 400.0 mg/kg/injection, schedule: Q04DX003 (ip), vehicle: saline with Tween-80.
The mark [2] stands for this setting: dose: 100.0 mg/kg/injection, schedule: Q01DX009 (ip), vehicle: saline with Tween-80.
Where [3] appears, read: dose: 200.0 mg/kg/injection, schedule: Q01DX009 (ip), vehicle: saline with Tween-80.

For `O=S(=O)(/N=C1/c2ccccc2/C(=N/S(=O)(=O)c2ccccc2)C2CC=CCC12)c1ccccc1` (stereo not given), the T/C is 94 % of control (dose: 25.0 mg/kg/injection, schedule: Q01DX001 (ip), vehicle: saline sonified); 95 % of control (dose: 50.0 mg/kg/injection, schedule: Q01DX001 (ip), vehicle: saline sonified); 92 % of control (dose: 100.0 mg/kg/injection, schedule: Q01DX001 (ip), vehicle: saline sonified).

`COc1ccc(C(CC(=O)c2ccccc2)CC(=O)c2ccccc2)cc1`: the T/C under setting [1] was 87 % of control.

Consider `CCOC(=O)C(I)CC` (stereo not given), for which the T/C by setting is: (dose: 25.0 mg/kg/injection, schedule: Q01DX009 (ip), vehicle: water) 107 % of control; (dose: 50.0 mg/kg/injection, schedule: Q01DX009 (ip), vehicle: water) 93 % of control; (dose: 100.0 mg/kg/injection, schedule: Q01DX009 (ip), vehicle: water) 87 % of control.

With `C[N+]1(Cc2ccccc2)CCC2(C(N)=O)CC1Cc1ccccc12` (stereo not given), the T/C reads like this: (dose: 75.0 mg/kg/injection, schedule: Q01DX001 (ip), vehicle: other) 105 % of control; (dose: 150.0 mg/kg/injection, schedule: Q01DX001 (ip), vehicle: other) 100 % of control; (dose: 300.0 mg/kg/injection, schedule: Q01DX001 (ip), vehicle: other) 93 % of control.

Regarding `C[C@@H]1C[C@@]2(C)[C@@H](CC[C@@H]3[C@@H]2CC[C@]2(C)[C@@H](OC4CCCCO4)CC[C@@H]32)CC1=O` (stereo not given in full), the T/C by setting is: (dose: 100.0 mg/kg/injection, schedule: Q01DX001 (ip), vehicle: carboxymethylcellulose (CMC)) 93 % of control; (dose: 400.0 mg/kg/injection, schedule: Q01DX001 (ip), vehicle: carboxymethylcellulose (CMC)) 88 % of control.

On to `CC(=O)Nc1snc(C)c1[N+](=O)[O-]`, for which the T/C is, setting by setting: (dose: 100.0 mg/kg/injection, schedule: Q01DX001 (ip), vehicle: saline) 107 % of control; (dose: 200.0 mg/kg/injection, schedule: Q01DX001 (ip), vehicle: saline) 103 % of control; (dose: 400.0 mg/kg/injection, schedule: Q01DX001 (ip), vehicle: saline) 103 % of control.

Consider `COc1ccc2c(c1)CCC1=C2CCC2C1C(=O)CCC21OCCCO1` (stereo not given), for which the T/C is 100 % of control (dose: 100.0 mg/kg/injection, schedule: Q04DX003 (ip), vehicle: Klucel (hydroxypropylcellulose) (HPC)); 96 % of control (dose: 200.0 mg/kg/injection, schedule: Q04DX003 (ip), vehicle: Klucel (hydroxypropylcellulose) (HPC)); 96 % of control (dose: 400.0 mg/kg/injection, schedule: Q04DX003 (ip), vehicle: Klucel (hydroxypropylcellulose) (HPC)).

For `O=c1n(C2OC(CO)C(O)C2O)ccc2nccn12` (stereo not given), the T/C reads like this: (dose: 2.5 mg/kg/injection, schedule: Q01DX009 (ip), vehicle: saline) 98 % of control; (dose: 3.13 mg/kg/injection, schedule: Q03HX024 (ip), vehicle: saline) 98 % of control; (dose: 5.0 mg/kg/injection, schedule: Q01DX009 (ip), vehicle: saline) 95 % of control; (dose: 6.25 mg/kg/injection, schedule: Q03HX024 (ip), vehicle: saline) 96 % of control; (dose: 10.0 mg/kg/injection, schedule: Q01DX009 (ip), vehicle: saline) 98 % of control; (dose: 12.5 mg/kg/injection, schedule: Q03HX024 (ip), vehicle: saline) 100 % of control. Moreover, the T/C is 106 % of control (dose: 20.0 mg/kg/injection, schedule: Q01DX009 (ip), vehicle: saline); 100 % of control (dose: 25.0 mg/kg/injection, schedule: Q03HX024 (ip), vehicle: saline); 101 % of control (dose: 40.0 mg/kg/injection, schedule: Q01DX009 (ip), vehicle: saline); 95 % of control (dose: 50.0 mg/kg/injection, schedule: Q01DX005 (ip), vehicle: saline); 122 % of control (dose: 50.0 mg/kg/injection, schedule: Q03HX024 (ip), vehicle: saline); 103 % of control (dose: 100.0 mg/kg/injection, schedule: Q01DX005 (ip), vehicle: saline). Further, the T/C was 92 % of control (dose: 200.0 mg/kg/injection, schedule: Q01DX005 (ip), vehicle: saline) and 94 % of control (dose: 400.0 mg/kg/injection, schedule: Q01DX005 (ip), vehicle: saline).

For `COC(=O)[CH]([Hg][CH](C(=O)OC)C(=O)OC)C(=O)OC`, the T/C runs as follows: (dose: 3.12 mg/kg/injection, schedule: Q04DX002 (ip), vehicle: Klucel (hydroxypropylcellulose) (HPC)) 88 % of control; (dose: 6.25 mg/kg/injection, schedule: Q04DX002 (ip), vehicle: Klucel (hydroxypropylcellulose) (HPC)) 98 % of control; (dose: 12.5 mg/kg/injection, schedule: Q04DX002 (ip), vehicle: Klucel (hydroxypropylcellulose) (HPC)) 91 % of control.

For `CC[C@@]1(O)C(=O)OCc2c1cc1n(c2=O)Cc2cc3c(OC)cccc3nc2-1`, the T/C was 122 % of control (dose: 0.25 mg/kg/injection, schedule: Q01DX009 (ip), vehicle: saline with Tween-80); 120 % of control (dose: 0.5 mg/kg/injection, schedule: Q01DX009 (ip), vehicle: carboxymethylcellulose (CMC)); 122 % of control (dose: 0.5 mg/kg/injection, schedule: Q01DX009 (ip), vehicle: saline with Tween-80); 107 % of control (dose: 1.0 mg/kg/injection, schedule: Q01DX009 (ip), vehicle: carboxymethylcellulose (CMC)); 162 % of control (dose: 1.0 mg/kg/injection, schedule: Q01DX009 (ip), vehicle: saline with Tween-80); 88 % of control (dose: 4.0 mg/kg/injection, schedule: Q01DX009 (ip), vehicle: carboxymethylcellulose (CMC)). The T/C was 173 % of control (dose: 4.0 mg/kg/injection, schedule: Q04DX003 (ip), vehicle: saline with Tween-80); 215 % of control (dose: 8.0 mg/kg/injection, schedule: Q04DX003 (ip), vehicle: saline with Tween-80); 123 % of control (dose: 12.5 mg/kg/injection, schedule: Q04DX003 (ip), vehicle: saline with Tween-80); 96 % of control (dose: 25.0 mg/kg/injection, schedule: Q04DX003 (ip), vehicle: saline with Tween-80); 93 % of control (dose: 50.0 mg/kg/injection, schedule: Q04DX003 (ip), vehicle: saline with Tween-80).

Turning to `O=C(NC(=S)Nc1ccc2c(c1)C(=O)c1ccccc1C2=O)c1cccc(Br)c1`, the T/C runs as follows: (dose: 50.0 mg/kg/injection, schedule: Q01DX009 (ip), vehicle: saline with Tween-80) 98 % of control; (dose: 100.0 mg/kg/injection, schedule: Q01DX001 (ip), vehicle: saline with Tween-80) 96 % of control; under setting [2], 98 % of control and 92 % of control; (dose: 100.0 mg/kg/injection, schedule: Q04DX002 (ip), vehicle: saline with Tween-80) 96 % of control and 97 % of control; (dose: 200.0 mg/kg/injection, schedule: Q01DX001 (ip), vehicle: saline with Tween-80) 93 % of control; under setting [3], 97 % of control and 98 % of control. The T/C is 94 % of control and 103 % of control (dose: 200.0 mg/kg/injection, schedule: Q04DX002 (ip), vehicle: saline with Tween-80); 103 % of control (dose: 400.0 mg/kg/injection, schedule: Q01DX001 (ip), vehicle: saline with Tween-80); 96 % of control and 97 % of control (dose: 400.0 mg/kg/injection, schedule: Q04DX002 (ip), vehicle: saline with Tween-80).

On to `CCOC(=O)CCC(C)(C#N)c1ccccc1` (stereo not given), for which the T/C by setting is: under setting [2], 104 % of control; (dose: 100.0 mg/kg/injection, schedule: Q04DX003 (ip), vehicle: saline with Tween-80) 108 % of control; under setting [3], 98 % of control; (dose: 200.0 mg/kg/injection, schedule: Q04DX003 (ip), vehicle: saline with Tween-80) 99 % of control; (dose: 400.0 mg/kg/injection, schedule: Q01DX009 (ip), vehicle: saline with Tween-80) 97 % of control; under setting [1], 106 % of control.

On to `CCC(=O)C(CCCN(C)C)(c1ccccc1)c1ccccc1`, for which the T/C is 107 % of control (dose: 5.0 mg/kg/injection, schedule: Q01DX001 (ip), vehicle: saline); 104 % of control (dose: 10.0 mg/kg/injection, schedule: Q01DX001 (ip), vehicle: saline); 93 % of control (dose: 20.0 mg/kg/injection, schedule: Q01DX001 (ip), vehicle: saline); 98 % of control (dose: 40.0 mg/kg/injection, schedule: Q01DX001 (ip), vehicle: saline).
